Source: US20170348306A1, “METHODS OF TREATING CANCER” (GLAXOSMITHKLINE LLC, priority 2011, published 2017)

How the values were obtained:
[1] = Complete blood count analysis of peripheral blood; format: in vivo; conditions: immunocompetent CD-1 mice; twice weekly dosing over 18 days
Experimental: All studies were conducted after review by the Institutional Animal Care and Use Committee at GSK and in accordance with the GSK Policy on the Care, Welfare and Treatment of Laboratory Animals. […] Pfeiffer or KARPAS-422 cells (1×10^7) in 100% matrigel (BD Biosciences) were implanted subcutaneously in female beige SCID mice. Tumors were measured with calipers, block randomized according to tumor size into treatment groups. […] Mice were weighed and tumors measured with calipers twice weekly. For mouse pharmacokinetic studies, tumor and blood samples were harvested from euthanized mice at the indicated time. […] For pharmacodynamic studies, a portion of each tumor was frozen for H3K27me3/H3 ELISAs or placed in RNAlater (Ambion) for RNA isolation. For peripheral blood analyses, blood was harvested via cardiac puncture from euthanized, immunocompetent CD-1 mice (3 mice/group) on day 18. Blood was immediately placed into a Microtainer EDTA tube (BD) and gently mixed by inverting. A complete blood count analysis was conducted using the Advia 2120 hematology analyzer (Siemens Medical Solutions) using multi-species software as per manufacturer's instructions.

[2] = system: TXNIP and TNFRSF21 expression; test: qRT-PCR of H3K27me3-enriched genes; format: cell-based, human; conditions: 72 hours
Experimental: RNA (2.8 μg) was reverse transcribed with MultiScribe Reverse Transcriptase (Applied BioSystems) according to the manufacturer's recommendations. The resulting cDNA was diluted and used along with TaqMan gene expression assays (Applied Biosystems; GAPDH, Hs03929097_g1; TNFRSF21, Hs00205419_m1; TXNIP, Hs00197750_m1). TaqMan Gene Expression Master Mix (Applied BioSystems), and a ViiA 7 Real-Time PCR System (Applied BioSystems) according to the manufacturer's recommendations to quantify gene expression.

EZH2 = target: T1, EZH2 (Homo sapiens, UniProt Q15910); test: Mechanism of GSK126 inhibition of EZH2 (IC50 at varied SAM and peptide); format: biochemical; conditions: SAM 0.1-15 μM; peptide 16-60 μM
T1 construct: TEV site (FLAG-tev-EZH2) (N); made in house; host or cells: Sf9 insect cells (baculovirus)
T1 sequence (Q15910 whole entry): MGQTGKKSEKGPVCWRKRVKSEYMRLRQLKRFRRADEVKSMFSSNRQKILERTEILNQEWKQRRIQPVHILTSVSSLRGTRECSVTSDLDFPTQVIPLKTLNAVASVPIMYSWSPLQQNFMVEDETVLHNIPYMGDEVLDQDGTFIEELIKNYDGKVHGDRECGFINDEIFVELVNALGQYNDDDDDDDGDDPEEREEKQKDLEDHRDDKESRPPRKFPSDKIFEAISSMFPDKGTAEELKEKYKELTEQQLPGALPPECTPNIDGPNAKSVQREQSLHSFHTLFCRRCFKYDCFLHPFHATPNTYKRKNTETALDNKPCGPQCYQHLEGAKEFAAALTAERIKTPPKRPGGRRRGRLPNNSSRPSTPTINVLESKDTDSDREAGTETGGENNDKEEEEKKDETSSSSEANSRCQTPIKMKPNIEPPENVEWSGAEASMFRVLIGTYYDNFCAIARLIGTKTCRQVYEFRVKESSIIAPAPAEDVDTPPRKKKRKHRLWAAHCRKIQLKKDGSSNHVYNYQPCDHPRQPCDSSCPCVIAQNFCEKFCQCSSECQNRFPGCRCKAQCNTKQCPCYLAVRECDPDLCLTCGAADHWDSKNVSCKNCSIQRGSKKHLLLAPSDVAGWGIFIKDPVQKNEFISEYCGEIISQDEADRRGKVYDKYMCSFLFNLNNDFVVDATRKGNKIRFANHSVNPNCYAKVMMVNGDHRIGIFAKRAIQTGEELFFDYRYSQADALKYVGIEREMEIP
T1 sequence (O75530 whole entry partner): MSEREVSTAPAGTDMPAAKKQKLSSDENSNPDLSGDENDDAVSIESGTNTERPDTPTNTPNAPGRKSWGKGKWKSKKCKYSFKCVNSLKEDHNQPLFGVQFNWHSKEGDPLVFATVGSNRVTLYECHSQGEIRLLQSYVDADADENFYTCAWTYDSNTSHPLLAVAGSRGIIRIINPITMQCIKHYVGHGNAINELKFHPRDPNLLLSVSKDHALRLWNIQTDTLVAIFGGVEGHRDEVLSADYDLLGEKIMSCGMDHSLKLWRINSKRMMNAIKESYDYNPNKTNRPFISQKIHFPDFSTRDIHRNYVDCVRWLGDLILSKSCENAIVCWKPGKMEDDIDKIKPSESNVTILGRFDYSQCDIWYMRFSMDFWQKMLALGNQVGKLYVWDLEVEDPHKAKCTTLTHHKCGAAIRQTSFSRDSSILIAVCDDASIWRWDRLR
T1 sequence (Q15022 whole entry partner): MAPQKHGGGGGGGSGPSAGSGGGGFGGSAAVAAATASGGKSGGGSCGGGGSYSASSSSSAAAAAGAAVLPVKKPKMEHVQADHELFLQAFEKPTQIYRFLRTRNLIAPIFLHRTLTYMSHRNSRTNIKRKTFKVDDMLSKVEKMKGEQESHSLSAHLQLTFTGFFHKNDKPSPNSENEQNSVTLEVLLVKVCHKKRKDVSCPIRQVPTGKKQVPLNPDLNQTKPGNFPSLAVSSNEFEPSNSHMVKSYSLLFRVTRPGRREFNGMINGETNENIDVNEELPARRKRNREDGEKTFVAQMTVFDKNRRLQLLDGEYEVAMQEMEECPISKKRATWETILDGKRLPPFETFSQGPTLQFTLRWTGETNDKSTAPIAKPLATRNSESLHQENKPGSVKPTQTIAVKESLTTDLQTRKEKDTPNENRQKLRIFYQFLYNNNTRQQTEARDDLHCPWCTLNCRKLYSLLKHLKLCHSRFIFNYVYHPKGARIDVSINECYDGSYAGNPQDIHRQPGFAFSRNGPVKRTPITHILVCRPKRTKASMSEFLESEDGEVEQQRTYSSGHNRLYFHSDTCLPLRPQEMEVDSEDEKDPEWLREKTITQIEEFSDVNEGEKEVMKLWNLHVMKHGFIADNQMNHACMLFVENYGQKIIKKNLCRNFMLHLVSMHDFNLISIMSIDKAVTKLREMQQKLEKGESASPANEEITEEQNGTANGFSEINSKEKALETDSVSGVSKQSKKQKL
T1 sequence (Q09028 whole entry partner): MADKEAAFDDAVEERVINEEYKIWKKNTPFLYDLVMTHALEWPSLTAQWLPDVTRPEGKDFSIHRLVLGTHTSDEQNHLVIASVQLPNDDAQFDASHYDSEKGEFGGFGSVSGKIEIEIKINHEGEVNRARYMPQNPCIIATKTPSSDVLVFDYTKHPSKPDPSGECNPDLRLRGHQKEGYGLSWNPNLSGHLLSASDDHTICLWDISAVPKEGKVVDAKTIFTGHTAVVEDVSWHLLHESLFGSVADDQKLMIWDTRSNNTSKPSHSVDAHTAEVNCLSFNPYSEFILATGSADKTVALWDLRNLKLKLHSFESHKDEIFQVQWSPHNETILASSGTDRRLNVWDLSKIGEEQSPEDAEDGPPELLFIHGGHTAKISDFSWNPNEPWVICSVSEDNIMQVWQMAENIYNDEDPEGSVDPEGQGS
T1 sequence (Q6ZN18 1-503 partner limits assumed): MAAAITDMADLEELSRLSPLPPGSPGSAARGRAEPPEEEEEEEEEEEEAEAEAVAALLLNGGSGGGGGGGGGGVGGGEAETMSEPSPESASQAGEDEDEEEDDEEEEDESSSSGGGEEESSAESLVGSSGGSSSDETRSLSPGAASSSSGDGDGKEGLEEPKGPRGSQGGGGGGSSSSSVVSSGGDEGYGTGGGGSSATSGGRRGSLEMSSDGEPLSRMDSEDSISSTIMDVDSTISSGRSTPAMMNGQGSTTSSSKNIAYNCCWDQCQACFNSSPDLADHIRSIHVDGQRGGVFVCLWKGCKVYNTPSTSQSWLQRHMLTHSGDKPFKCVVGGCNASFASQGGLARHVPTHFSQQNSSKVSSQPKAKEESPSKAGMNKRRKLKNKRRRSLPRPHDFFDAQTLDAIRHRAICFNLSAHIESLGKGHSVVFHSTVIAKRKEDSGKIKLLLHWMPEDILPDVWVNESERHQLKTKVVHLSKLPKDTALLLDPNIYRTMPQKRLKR
Description: The resulting IC50 values were plotted against the [SAM]/Km ratio or the [peptide]/Km ratio respectively.

DLBCL cell lines = test: Gene expression profiling (Affymetrix Human Genome U133 Plus 2.0); format: cell-based; conditions: 72 hours
Experimental: (§1) Biochemical assays utilized the 5-member PRC2 complex (human Flag-EZH2, EED, SUZ12, AEBP2, RbAp48) containing either WT or mutant EZH2, [^3H-]SAM and the indicated peptide substrate; reactions were incubated for 30 minutes. Global histone modification levels were determined by ELISA or western blot methods using antibodies specific for total histone H3, H3K27me1, H3K27me2, or H3K27me3. Cell proliferation and Caspase-3/7 activity were assessed using CellTiter-Glo and Caspase-Glo 3/7 (Promega), respectively. Gene expression profiling was conducted using Affymetrix Human Genome U133 Plus 2.0 microarrays. Differentially-expressed probe sets were determined by fitting the data to a linear model using the limma statistical package (http://www.bioconductor.org) and carrying out pair-wise contrasts of treated versus control. Significant probe sets were filtered for detection (log2 signal threshold of 8), an average fold-change >2 or <−2, or >1.5 or <−1.5, where indicated, with p-values adjusted for multiple testing correction by FDR (Benjamini Hochberg)<0.1. H3K27me3 ChIP reads were aligned using Bowtie (56). H3K27me3 enrichment peaks were identified using SICER (57) with optimized parameters. A custom PERL script was utilized to quantify the average basal H3K27me3 ChIP-seq tag density across gene sets. All in vivo studies were conducted after review by the Institutional Animal Care and Use Committee at GSK and in accordance with the GSK Policy on the Care, Welfare and Treatment of Laboratory Animals. GSK126 and vehicle were administered to mice intraperitoneally. Two-tailed t-tests were conducted assuming two samples of equal variance.
Cells (2×10^5/well) were seeded into six-well tissue culture plates in the appropriate cell culture media 24 hours before treatment. […] Cells were collected into Trizol reagent (Invitrogen) and total RNA was isolated via phenol:chloroform extraction and the RNeasy kit (Qiagen) according to the manufacturer's instructions. Total RNA was labeled and hybridized to Affymetrix Human Genome U133 Plus 2.0 oligonucleotide microarrays arrays according to the manufacturer's instructions (Affymetrix, Santa Clara, Calif., USA) at Expression Analysis (Durham, N.C.). […] Principal component and correlation analysis were used to confirm data reproducibility (FIG. 16).
CEL files, corresponding to individual samples, were processed by the Micro Array Suite 5.0 (MASS) algorithm (http://www.affyrmetrix.com/support/index.affx) where signal values were scaled to a target intensity of 500 and log2 transformed. Differentially expressed probe sets were determined by fitting the data to a linear model and carrying out pair-wise contrasts of treated versus control. […]

Pfeiffer = test: Cell proliferation assay (6 days, CellTiter-Glo); format: cell-based, human
Description: (§2) Thus, Example 22 and Table 6 better reflect the inhibition of HZH2 inhibitors on cell lines, e.g. the lymphoma cell lines. DLBCL cell lines were the most sensitive to EZH2 inhibition (FIG. 11a). […] Evaluation of GSK126 in additional lymphoma cell lines and extensive genomic and epigenomic characterization will be required to fully elucidate the determinants of sensitivity among lymphoma subtypes.
as §1
(§3) The optimal cell seeding was determined empirically for all cell lines by examining the growth of a wide range of seeding densities in a 384-well format to identify conditions that permitted proliferation for 6 days. […] Plates were incubated for 6 days at 37° C. in 5% CO2. Cells were then lysed with CellTiter-Glo (Promega) and chemiluminescent signal was detected with a TECAN Safire2 microplate reader. In addition, an untreated plate of cells was harvested at the time of compound addition (T0) to quantify the starting number of cells. CTG values obtained after the 6 day treatment were expressed as a percent of the T0 value and plotted against compound concentration.

KARPAS-422 = test: Cell proliferation assay (6 days, CellTiter-Glo); format: cell-based, human
Description: as §2, §1, §3

CC[C@H](C)n1cc(C)c2c(C(=O)NCc3c(C)cc(C)[nH]c3=O)cc(-c3ccc(N4CCNCC4)nc3)cc21 [GSK126]
complete blood count, blood cell types [1]: no significant changes
lowest concentration with dose-responsive increases in gene expression ([2]; Pfeiffer and KARPAS-422, two H3K27me3-enriched genes): 25 nM
gene expression changes (qRT-PCR) ([2]; Toledo, up to 1 μM GSK126): no transcriptional changes
mechanism of inhibition (EZH2): competitive with SAM and non-competitive with peptide substrates
up-regulated probe sets common to at least 4 of 5 mutant cell lines (DLBCL cell lines; Pfeiffer, KARPAS-422, WSU-DLCL2, SU-DHL-10, SU-DHL-6, 500 nM): 35 probe sets
down-regulated probe sets (DLBCL cell lines; Toledo, 2 μM GSK126): 10 probe sets
up-regulated probe sets (DLBCL cell lines; Toledo, 2 μM GSK126): 23 probe sets
share of up-regulated among gene expression changes (DLBCL cell lines; five most sensitive EZH2 mutant cell lines, 500 nM): 69-95%
time after which net decreases in cell number were evident (Pfeiffer): 3 days
time after which potent inhibition of cell proliferation was observed (Pfeiffer): 2 days
IC50 (Pfeiffer; Homo sapiens, 144 h, […], 6 days, DLBCL, EZH2 A677G (HET), read-out: AVERAGE GROWTH IC50): 0.028 µM
time required for maximal potency on growth (KARPAS-422): 6 to 7 days
IC50 (KARPAS-422; Homo sapiens, 144 h, 6 days, DLBCL, EZH2 Y641F (HET), read-out: AVERAGE GROWTH IC50): 0.232 µM
